From US20020137929A1, “1 - (3-heterocyclylphenyl) isothiourea, -isourea, -guanidine and -amidine herbicidal agents” (Intellectual Property Department, BASF Aktiengesellschaft, priority 1998, published 2002)

Tests used:
ABUTH (Velvetleaf) [1] = experiment: Postemergence herbicidal evaluation; format: in vivo, Abutilon theophrasti; conditions: postemergence
Summary of the method: (§1)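 Rate range approx. 0.0156–0.500 kg/ha. Foliar application at 40 psi to ~2-week seedlings; surfactant 0.5% TWEEN 20 in 50/50 acetone/water. Evaluation 4–5 wk post-treatment by 0–9 visual injury score, means of replicate tests.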

[2] = system: IPOHE (Morningglory, Ivyleaf); experiment: Postemergence herbicidal evaluation; format: in vivo, Ipomoea hederacea; conditions: postemergence
Summary of the method: as §1

SETVI (Foxtail, Green) = experiment: Postemergence herbicidal evaluation; format: in vivo, Setaria viridis; conditions: postemergence
Summary of the method: as §1

[3] = system: GLXMAW (Soybean, Williams); experiment: Postemergence herbicidal evaluation; format: in vivo, Glycine max, (L.) Merr. cv Williams; conditions: postemergence
Summary of the method: as §1

ZEAMX (Corn, Field) = experiment: Postemergence herbicidal evaluation; format: in vivo, Zea mays; conditions: postemergence
Summary of the method: as §1

ABUTH (Velvetleaf) [4] = experiment: Preemergence herbicidal evaluation; format: in vivo, Abutilon theophrasti; conditions: rated 4-5 weeks after treatment
Summary of the method: (§2)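 Preemergence soil application of compound, sprayed in aqueous acetone at rates equivalent to about 0.0156 to 0.500 kg per hectare onto freshly sown cups. Plant response was judged by eye on a 0-9 scale four to five weeks later.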

AMBEL (Ragweed, Common) = experiment: Preemergence herbicidal evaluation; format: in vivo, Ambrosia artemisifolia; conditions: rated 4-5 weeks after treatment
Summary of the method: as §2

CASOB (Sicklepod) = experiment: Preemergence herbicidal evaluation; format: in vivo, Cassia obtusifolia; conditions: rated 4-5 weeks after treatment
Source text: (§3) Results of herbicide evaluation are expressed on a rating scale (0-9). The scale is based upon a visual observation of plant stand, vigor, malformation, size, chlorosis and overall plant appearance as compared with a control.
(§4) The preemergence herbicidal activity of the test compounds of the present invention is exemplified by the following tests in which the seeds of a variety of monocotyledonous and dicotyledonous plants are separately mixed with potting soil and planted on top of approximately one inch of soil in separate pint cups. After planting, the cups are sprayed with the selected aqueous acetone solution containing test compound in sufficient quantity to provide the equivalent of about 0.0156 to 0.500 kg per hectare of test compound per cup. The treated cups are then placed on greenhouse benches, watered and cared for in accordance with conventional greenhouse procedures. From four to five weeks after treatment, the tests are terminated and each cup is examined and rated according to the rating system provided in Example 37.
(§5) The compounds evaluated are reported by compound number given in Example 37.

[5] = system: IPOHE (Morningglory, Ivyleaf); experiment: Preemergence herbicidal evaluation; format: in vivo, Ipomoea hederacea; conditions: rated 4-5 weeks after treatment
Source text: as §3, §4, §5

ECHCG (Barnyardgrass) = experiment: Preemergence herbicidal evaluation; format: in vivo, Echinochloa crus-galli; conditions: rated 4-5 weeks after treatment
Summary of the method: as §2

[6] = system: ECHORC (Watergrass (Calif.)); experiment: Preemergence weed control under flooded paddy conditions; format: in vivo, Echinochloa oryzoides; conditions: rated 3-4 weeks after treatment
Summary of the method: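 Seeds or propagules sown in silt loam kept flooded 1.5-3 cm; compounds in 50/50 acetone/water pipetted into flood water at about 0.0313 to 0.500 kg/ha. Greenhouse; visual 0-9 rating versus untreated control 3-4 weeks after treatment.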

CYPSE (Flatsedge) = experiment: as above; format: in vivo, Cyperus serotinus; conditions: rated 3-4 weeks after treatment
Protocol: as §3
Preemergence herbicidal activity under flooded paddy conditions is determined as follows: plant seeds or propagating organs are planted in the top 0.5 cm of silt loam soil in 32 oz. plastic containers with a diameter of 10.5 cm and no drainage holes. Water is added to these containers and maintained at 1.5 to 3 cm above the soil surface for the duration of the experiment. The test compounds are applied as aqueous/acetone mixtures 50/50 v/v pipetted directly into the flood water to give the equivalent of about 0.0313 to 0.500 kg/ha of active ingredient. The treated containers are placed on greenhouse benches and cared for in accordance with conventional greenhouse procedures. Three to four weeks after treatment, the test is terminated and each container is examined and herbicidal effect rated according to the rating system provided in Example 37. The compounds evaluated are reported by compound number given in Example 37.
Plant species employed in this example are reported by header abbreviation, common name and scientific name.

Question: Which results are given for `CC(C)OC(=O)CN1C(=O)CSC1=Nc1cc(-n2c(=O)cc(C(F)(F)F)n(C)c2=O)c(F)cc1Cl` [Compound 110]?
Answer: Herbicidal rating ABUTH (ABUTH (Velvetleaf) [1]; rate 0.0158 kg/ha): 9.0; Herbicidal rating ABUTH (ABUTH (Velvetleaf) [1]; rate 0.0315 kg/ha): 9.0; Herbicidal rating ABUTH (ABUTH (Velvetleaf) [1]; rate 0.0630 kg/ha): 9.0; Herbicidal rating IPOHE ([2]; rate 0.0158 kg/ha): 9.0; Herbicidal rating IPOHE ([2]; rate 0.0315 kg/ha): 9.0; Herbicidal rating IPOHE ([2]; rate 0.0630 kg/ha): 9.0; Herbicidal rating SETVI (SETVI (Foxtail, Green); rate 0.0158 kg/ha): 1.0; Herbicidal rating SETVI (SETVI (Foxtail, Green); rate 0.0315 kg/ha): 9.0; Herbicidal rating SETVI (SETVI (Foxtail, Green); rate 0.0630 kg/ha): 9.0; Herbicidal rating GLXMAW ([3]; rate 0.0158 kg/ha): 5.0; Herbicidal rating GLXMAW ([3]; rate 0.0315 kg/ha): 6.5; Herbicidal rating GLXMAW ([3]; rate 0.0630 kg/ha): 6.5; Herbicidal rating ZEAMX (ZEAMX (Corn, Field); rate 0.0158 kg/ha): 5.0; Herbicidal rating ZEAMX (ZEAMX (Corn, Field); rate 0.0315 kg/ha): 6.5; Herbicidal rating ZEAMX (ZEAMX (Corn, Field); rate 0.0630 kg/ha): 7.0; Preemergence herbicidal rating ABUTH (ABUTH (Velvetleaf) [4]; rate 0.0156 kg/ha): 5.5; Preemergence herbicidal rating ABUTH (ABUTH (Velvetleaf) [4]; rate 0.0313 kg/ha): 9.0; Preemergence herbicidal rating ABUTH (ABUTH (Velvetleaf) [4]; rate 0.0625 kg/ha): 9.0; Preemergence herbicidal rating ABUTH (ABUTH (Velvetleaf) [4]; rate 0.1250 kg/ha): 9.0; Preemergence herbicidal rating ABUTH (ABUTH (Velvetleaf) [4]; rate 0.2500 kg/ha): 9.0; Preemergence herbicidal rating ABUTH (ABUTH (Velvetleaf) [4]; rate 0.5000 kg/ha): 9.0; Preemergence herbicidal rating AMBEL (AMBEL (Ragweed, Common); rate 0.0156 kg/ha): 1.0; Preemergence herbicidal rating AMBEL (AMBEL (Ragweed, Common); rate 0.0313 kg/ha): 2.5; Preemergence herbicidal rating AMBEL (AMBEL (Ragweed, Common); rate 0.0625 kg/ha): 3.5; Preemergence herbicidal rating AMBEL (AMBEL (Ragweed, Common); rate 0.1250 kg/ha): 4.5; Preemergence herbicidal rating AMBEL (AMBEL (Ragweed, Common); rate 0.2500 kg/ha): 6.5; Preemergence herbicidal rating AMBEL (AMBEL (Ragweed, Common); rate 0.5000 kg/ha): 9.0; Preemergence herbicidal rating CASOB (CASOB (Sicklepod); rate 0.0156 kg/ha): 0.0; Preemergence herbicidal rating CASOB (CASOB (Sicklepod); rate 0.0313 kg/ha): 0.0; Preemergence herbicidal rating CASOB (CASOB (Sicklepod); rate 0.0625 kg/ha): 0.0; Preemergence herbicidal rating CASOB (CASOB (Sicklepod); rate 0.1250 kg/ha): 2.0; Preemergence herbicidal rating CASOB (CASOB (Sicklepod); rate 0.2500 kg/ha): 5.0; Preemergence herbicidal rating CASOB (CASOB (Sicklepod); rate 0.5000 kg/ha): 9.0; Preemergence herbicidal rating IPOHE ([5]; rate 0.0156 kg/ha): 3.5; Preemergence herbicidal rating IPOHE ([5]; rate 0.0313 kg/ha): 4.5; Preemergence herbicidal rating IPOHE ([5]; rate 0.0625 kg/ha): 5.5; Preemergence herbicidal rating IPOHE ([5]; rate 0.1250 kg/ha): 9.0; Preemergence herbicidal rating IPOHE ([5]; rate 0.2500 kg/ha): 9.0; Preemergence herbicidal rating IPOHE ([5]; rate 0.5000 kg/ha): 9.0; Preemergence herbicidal rating ECHCG (ECHCG (Barnyardgrass); rate 0.0156 kg/ha): 0.0; Preemergence herbicidal rating ECHCG (ECHCG (Barnyardgrass); rate 0.0313 kg/ha): 0.0; Preemergence herbicidal rating ECHCG (ECHCG (Barnyardgrass); rate 0.0625 kg/ha): 0.5; Preemergence herbicidal rating ECHCG (ECHCG (Barnyardgrass); rate 0.1250 kg/ha): 2.0; Preemergence herbicidal rating ECHCG (ECHCG (Barnyardgrass); rate 0.2500 kg/ha): 3.0; Preemergence herbicidal rating ECHCG (ECHCG (Barnyardgrass); rate 0.5000 kg/ha): 4.0; ECHORC herbicidal effect rating ([6]; 0.0313 kg/ha): 7.0; ECHORC herbicidal effect rating ([6]; 0.0625 kg/ha): 7.0; ECHORC herbicidal effect rating ([6]; 0.1250 kg/ha): 7.0; ECHORC herbicidal effect rating ([6]; 0.2500 kg/ha): 9.0; CYPSE herbicidal effect rating (CYPSE (Flatsedge); 0.0313 kg/ha): 0.0; CYPSE herbicidal effect rating (CYPSE (Flatsedge); 0.0625 kg/ha): 0.0; CYPSE herbicidal effect rating (CYPSE (Flatsedge); 0.1250 kg/ha): 0.0; CYPSE herbicidal effect rating (CYPSE (Flatsedge); 0.2500 kg/ha): 0.0
